Results reported in patent US11117856B2, “Polyamine compounds targeting the efflux pumps of multi-drug resistant bacterial pathogens and methods of using the same” (UNIVERSITY OF SOUTH FLORIDA, priority 2016, dated 2021).
Several values for one entry are separate records, joined by “and”; a condition that tells them apart may be missing. Equal values may be shown once.

Columns and labels:
[1] = test system: tetracycline resistant strain of P. aeruginosa; assay: Checkerboard potentiation assay with tetracycline; format: cell-based; settings: for FP^#c (Fold Potentiation, EC90): Table 1, tetracycline EC90; for FP* (Fold Potentiation, EC50): EC50 tetracycline with no TPI/with TPI; for FP* (Fold Potentiation, EC50) / FP^# (Fold Potentiation, EC90): 25 μg mL^−1 TPI; for FP^# (Fold Potentiation, EC90): EC90 tetracycline with no TPI/with TPI; for FP*^c (Fold Potentiation, EC50): Table 1, tetracycline EC50; for TPI (inhibitory concentration of the polyamines alone to produce EC values): polyamine alone, no tetracycline, 25 μg mL^−1 highest concentration tested
Protocol: (§1) The bacterial strains used in this study are multi-drug resistant clinical isolates that have previously been described (TABLE 2) (Fleeman, et al. J. Med. Chem. 2015, 58, 3340-3355). Organisms were grown in tryptic soy broth (TSB) for overnight cultures, and cation adjusted Mueller Hinton broth (CA-MH II) was used for experimental procedures. All incubations were performed at 37° C.
(§2) Scaffold ranking library samples and individual polyamines were screened using checkerboard inhibitory assays to assess the potentiation of tetracycline and chloramphenicol. The test utilized a 96-well plate microtiter assay where the concentration of the scaffold or individual polyamine was decreased from 25 μg mL^−1 to 0.8 μg mL^−1 (average molarity of 65 μM to 4 μM) along the rows, and the concentration of tetracycline or chloramphenicol was increased from 0.4 μM to 100 μM across the columns. Plates were incubated statically at 37° C. for 20 hours, and the optical density (OD600) was determined using a Synergy 2 plate reader (Biotek). Potentiation modeling (detailed below) was performed to determine fold change in the 50% and 90% effective concentration of tetracycline or chloramphenicol.
Potentiation was quantified using a mathematical model developed by our group to assess the ability of library samples and individual compounds to effectively enhance the activity of tetracycline or chloramphenicol (Hoel, D. G. Statistical Aspects of Chemical Mixtures. Methods for assessing the effects of mixtures of chemicals. 1987, New York). […] In this way, only libraries and compounds that potentiated tetracycline or chloramphenicol activity were pursued. The model is based on the following equation for modeling the percentage activity of a mixture of two agents with independent action (Hoel, et al. Statistical Aspects of Chemical Mixtures. Methods for assessing the effects of mixtures of chemicals. 1987, New York): %Antibiotic & Comp(x1,x2)=%Antibiotic(x1)+%Comp(x2)−%Antibiotic(x1)·%Comp(x2)
Here, x1 and x2 are the concentrations of antibiotic (tetracycline or chloramphenicol) and library/compound (Comp) tested, respectively. This equation can be rearranged to model the effective percent activity (EC) of the antibiotic alone, after accounting for compound activity:
[formula] Thus, the model-adjusted checkerboards show the antibiotic activity post-potentiation, and from that one can determine the true change in MIC.

P. aeruginosa biofilm = assay: Pre-formed biofilm viability assessment with tetracycline; format: cell-based; settings: for biofilm cells recovered, EPI alone: 25 μg mL^−1 (MPC), no tetracycline;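 on biofilm recovery, combination treatment: percent recovery versus no treatment controls after 20 Hours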
Protocol: (§3) Lead agents were screened for bactericidal activity as described previously (Van Horn, et al. J. Med. Chem. 2014, 57, 3075-3093; […], et al. J. Med. Chem. 2015, 58, 3340-3355), with the following modifications. […] Biofilm experiments were performed similar to those described previously ([…], et al. J. Med. Chem. 2015, 58, 3340-3355; von Salm, et al. Org. Lett. 2016, 18, 2596-2599), with the following modifications.

Hek293T cells = assay: MTT cytotoxicity assay; format: cell-based, human; settings: 25 μg mL^−1, 48 hours
Protocol: (§4) To assess toxicity of polyamine compounds we used HepG2 human liver carcinoma cells and Hek293T human embryonic kidney epithelial cells. […] J. Med. Chem. 2015, 58, 3340-3355). […] Cells were then incubated for 48 hours at 37° C. with 5% CO2. Following this, viability was assessed by the addition of MTT and measuring the OD570 in a Biotek plate reader. Percent recovery was determined compared to no drug controls.

P. aeruginosa [2] = assay: Bactericidal assessment with tetracycline; format: cell-based
Protocol: as §3

HepG2 cells = assay: MTT cytotoxicity assay; format: cell-based, human; settings: 25 μg mL^−1 (highest concentration tested), 48 hours
Protocol: as §4

P. aeruginosa [3] = assay: Checkerboard potentiation assay with chloramphenicol; format: cell-based; settings: increasing EPI concentration, dose response
Protocol: as §1
as §2, with “Potentiation modeling (detailed below) was performed to determine fold change in the 50% and 90% effective concentration of tetracycline or chloramphenicol.” left out
Potentiation was quantified using a mathematical model developed by our group to assess the ability of library samples and individual compounds to effectively enhance the activity of tetracycline or chloramphenicol (Hoel, D. G. Statistical Aspects of Chemical Mixtures. Methods for assessing the effects of mixtures of chemicals. 1987, New York). […]

P. aeruginosa cells = assay: Bacterial membrane depolarization (DiSC3 dye); format: cell-based; settings: 25 μg mL^−1
Protocol: To determine the level of membrane depolarization by polyamine compounds a 3,3′-dipropylthiadicarbocyanine Iodide (DiSC3) fluorescence dye was used. Exponentially growing cultures were prepared as described above, before being harvested by centrifugation. Cells were next washed in buffer A (5 mM HEPES pH 7.2, 5 mM glucose) and resuspended to an OD600 of 0.2 in the same buffer containing 100 mM KCl and 2 μM DiSC3. Samples were allowed to equilibrate for 15 minutes at room temperature to ensure uptake and quenching of the dye in bacterial membranes. Cells were aliquoted into 96-well plates and polyamines were added alongside the known efflux inhibitor PAN (all at 25 μg mL^−1). Nisin (25 μg mL^−1) was used as a positive control to display depolarization effects. A Biotek plate reader was used to monitor fluorescence of wells, with a 622 nm excitation and 670 nm emission. For graphical representation, the maximum relative fluorescence at 2 minutes was used for comparison of lead agents to controls.

[4] = 25 μM tetracycline + MPC of EPI
[5] = 50 μM tetracycline + MPC of EPI
[6] = 12 μM tetracycline + MPC of EPI

Row | FP^#c (Fold Potentiation, EC90) [1] | FP* (Fold Potentiation, EC50) [1] | FP^# (Fold Potentiation, EC90) [1] | FP*^c (Fold Potentiation, EC50) [1] | Molecule | biofilm recovery, combination treatment (P. aeruginosa biofilm; [4]) | biofilm cells recovered, EPI alone (P. aeruginosa biofilm) | biofilm recovery, combination treatment (P. aeruginosa biofilm; [5]) | percent recovery of Hek293T cells compared to solvent only controls (Hek293T cells) | percent recovery, combination treatment (P. aeruginosa [2]; [6]) | percent recovery, combination treatment (P. aeruginosa [2]; [5]) | TPI (inhibitory concentration of the polyamines alone to produce EC values) [1] | HepG2 cell viability / recovery (HepG2 cells) | change in DiSC3 fluorescence (membrane depolarization) (P. aeruginosa cells) | further results
1 | 1 fold | – | – | – | COC(=O)[C@H]1[C@H]2C[C@@H]3c4[nH]c5cc(OC)ccc5c4CCN3C[C@H]2C[C@@H](OC(=O)c2cc(OC)c(OC)c(OC)c2)[C@@H]1OC [Reserpine, reference compound] | – | – | – | – | – | – | – | – | – | –
2 | 8.3 fold | 5 fold | 7.5 fold | 5 fold and 5.0 fold | CNCCCC[C@@H](CN)NC[C@H](Cc1ccccc1)NCCc1ccccc1 [TPI 247, (S)—N6-methyl-N2—((S)-2-(phenethylamino)-3-phenylpropyl)hexane-1,2,6-triamine] | 0.6% | 99.99% | 0.2% | 84% | 2.9% | 0.04% | >25 µg/mL | – | – | –
3 | 7.8 fold | 7 fold | 7.8 fold | 7.0 fold | NCC[C@@H](CN)NC[C@H](Cc1ccccc1)NCCc1ccccc1 [TPI 250, (S)—N^2—((S)-2-(phenethylamino)-3-phenylpropyl)butane-1,2,4-triamine] | 1% | 99.99% | 0.5% | – | 2.2% | 0.01% | >25 µg/mL | 80% | – | biofilm recovery, combination treatment (P. aeruginosa biofilm; [6]): 21%; improvement of tetracycline alone biofilm eradication (P. aeruginosa biofilm; [6]): 67%
4 | 5.8 fold | 6.8 fold | 5.8 fold | 6.8 fold | CNCCCC[C@H](CN)NC[C@H](Cc1ccccc1)NCCc1ccccc1 [TPI 266, (R)—N^6-methyl-N^2—((S)-2-(phenethylamino)-3-phenylpropyl)hexane-1,2,6-triamine] | 1% | 92% | 0.6% | 72% | 0.76% | 0.01% | >25 µg/mL | – | – | potentiation of chloramphenicol EC90 (P. aeruginosa [3]): highest potentiation values
5 | 8.5 fold | 8.2 fold | 8.5 fold | 8.2 fold | NCCC[C@H](CN)NC[C@H](Cc1ccccc1)NCCc1ccccc1 [TPI 271, (R)—N^2—((S)-2-(phenethylamino)-3-phenylpropyl)pentane-1,2,5-triamine] | 0.5% | 99.99% | 0.2% | 75% | 2% | 0.02% | >25 µg/mL | 74% | – | –
6 | 7.5 fold | 5 fold | 7.5 fold | 5 fold and 5.0 fold | NCCC[C@@H](CN[C@H](CN)Cc1ccccc1)NCCc1ccccc1 [TPI 314, (S)—N^1—((S)-1-amino-3-phenylpropan-2-yl)-N^2-phenethylpentane-1,2,5-triamine] | 1% | 99.99% | 0.6% | – | 5.3% | 0.01% | >25 µg/mL | 77% | – | –
7 | – | – | – | – | O=C(N[C@H](CO)[C@H](O)c1ccc([N+](=O)[O-])cc1)C(Cl)Cl [chloramphenicol] | – | – | – | – | – | – | – | – | decreased in florescence | –
8 | – | – | – | – | CN(C)[C@@H]1C(O)=C(C(N)=O)C(=O)[C@@]2(O)C(O)=C3C(=O)c4c(O)cccc4[C@@](C)(O)[C@H]3C[C@@H]12 [tetracycline, reference compound] | – | – | – | – | – | – | – | – | – | more biofilm eradication on increasing tetracycline by itself (P. aeruginosa biofilm; from 12 μM to 25 μM): 4%; biofilm cells recovered, tetracycline alone (P. aeruginosa biofilm; tetracycline 50 μM): 9%; less recovery on increasing tetracycline alone (P. aeruginosa [2]; from 12 μM to 25 μM): 17.8%; bacterial recovery, tetracycline alone (P. aeruginosa [2]; tetracycline 12 μM): 53%; bacterial recovery, tetracycline alone (P. aeruginosa [2]; tetracycline 25 μM): 35%; bacterial recovery, tetracycline alone (P. aeruginosa [2]; tetracycline 50 μM): 1%; EC50 ([1]; Pseudomonas aeruginosa, no EPI, average across all replicates, read-out: tetracycline alone EC50): 47.8 µM; EC90 ([1]; no library or EPI, average across all replicates, read-out: tetracycline alone EC90): 82.5 µM
9 | – | – | – | – | nisin | – | – | – | – | – | – | – | – | strong increase in fluorescence | –

Row | Molecule | FP^#c (Fold Potentiation, EC90) [1] | FP* (Fold Potentiation, EC50) [1] | FP^# (Fold Potentiation, EC90) [1] | FP*^c (Fold Potentiation, EC50) [1] | biofilm recovery, combination treatment (P. aeruginosa biofilm; [4]) | biofilm cells recovered, EPI alone (P. aeruginosa biofilm) | biofilm recovery, combination treatment (P. aeruginosa biofilm; [5]) | percent recovery of Hek293T cells compared to solvent only controls (Hek293T cells) | percent recovery, combination treatment (P. aeruginosa [2]; [6]) | percent recovery, combination treatment (P. aeruginosa [2]; [5]) | TPI (inhibitory concentration of the polyamines alone to produce EC values) [1] | HepG2 cell viability / recovery (HepG2 cells) | change in DiSC3 fluorescence (membrane depolarization) (P. aeruginosa cells) | further results
10 | phenylalanine arginine beta naphthalamide [PAβN, reference compound] | 8 fold | – | – | 65.5 fold | 7% | – | 1% | 63% | 0.79% | 0.02% | – | 68% | strong increase in fluorescence | percent recovery, combination treatment (P. aeruginosa [2]; [4]): 0.2%; bacterial recovery (viability), EPI alone (P. aeruginosa [2]; 25 μg mL^−1, no tetracycline): 76%; TPL (inhibitory concentration of the Torrey Pines Library alone to produce an EC90 value) [1]: >25 µg/mL; FP (Fold Potentiation, EC90) ([1]; EC90 tetracycline with no TPL/EC90 tetracycline with TPL, 25 μg mL−1 library): 8.01 fold; EPI*^a (inhibitory concentration of the individual Efflux Pump Inhibitor alone) ([1]; EPI alone, 50% effective concentration): >25 µg/mL
